Experimental data taken from US20240391931A1 (Bristol-Myers Squibb Company, priority 2021, published 2024).
Where a name gives a salt, the structure may show the parent alone.

Experiments:
[1] = target: T1, HER2YVMA (Homo sapiens, UniProt P04626, INS775YVMA); test: HER2 occupancy assay in Ba/F3-HER2YVMA cells; type: cell-based; design: expressed in transfected cells; host or cells: Ba/F3 (clones); lentiviral vector pCDH-CMV-MCS-EF1-Neo; conditions: concentration at which 50% of HER2 is irreversible bound, read-out: Ba/F3 YVMA HER2 Occ
T1 sequence (P04626 with tags, fused parts or gaps INS775YVMA): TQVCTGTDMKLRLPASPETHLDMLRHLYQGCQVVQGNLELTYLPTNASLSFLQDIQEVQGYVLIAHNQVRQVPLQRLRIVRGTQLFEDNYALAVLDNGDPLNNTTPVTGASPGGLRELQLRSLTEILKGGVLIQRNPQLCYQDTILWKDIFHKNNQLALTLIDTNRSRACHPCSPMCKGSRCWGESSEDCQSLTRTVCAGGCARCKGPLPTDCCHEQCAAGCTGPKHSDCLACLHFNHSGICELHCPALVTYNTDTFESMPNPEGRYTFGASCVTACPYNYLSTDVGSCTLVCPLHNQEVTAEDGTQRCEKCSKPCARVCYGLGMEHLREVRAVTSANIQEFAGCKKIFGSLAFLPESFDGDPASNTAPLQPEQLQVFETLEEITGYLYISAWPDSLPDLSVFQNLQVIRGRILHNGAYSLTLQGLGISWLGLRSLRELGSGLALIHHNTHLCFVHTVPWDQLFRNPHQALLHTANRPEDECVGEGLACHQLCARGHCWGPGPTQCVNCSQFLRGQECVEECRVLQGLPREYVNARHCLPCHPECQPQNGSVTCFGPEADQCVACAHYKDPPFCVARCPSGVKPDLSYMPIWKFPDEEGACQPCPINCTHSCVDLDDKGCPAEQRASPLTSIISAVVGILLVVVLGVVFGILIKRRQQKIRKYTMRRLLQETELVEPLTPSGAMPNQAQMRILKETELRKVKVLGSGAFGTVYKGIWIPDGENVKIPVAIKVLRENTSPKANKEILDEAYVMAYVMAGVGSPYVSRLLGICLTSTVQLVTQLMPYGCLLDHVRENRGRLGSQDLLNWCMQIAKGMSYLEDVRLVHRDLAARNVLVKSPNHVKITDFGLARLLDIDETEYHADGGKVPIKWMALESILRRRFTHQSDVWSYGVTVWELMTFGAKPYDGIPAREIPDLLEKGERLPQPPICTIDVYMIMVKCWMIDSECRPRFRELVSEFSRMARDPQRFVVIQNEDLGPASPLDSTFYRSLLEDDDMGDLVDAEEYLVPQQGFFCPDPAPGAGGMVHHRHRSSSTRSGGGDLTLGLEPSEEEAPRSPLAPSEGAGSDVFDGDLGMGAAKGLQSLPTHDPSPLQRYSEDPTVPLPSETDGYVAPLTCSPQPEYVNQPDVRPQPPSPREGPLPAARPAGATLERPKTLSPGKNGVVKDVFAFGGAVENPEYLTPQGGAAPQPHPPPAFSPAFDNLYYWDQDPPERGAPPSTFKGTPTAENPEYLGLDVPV
Procedure: In order to assess free HER2 protein, a biotinylated probe was utilized. BT474, N87, and Ba/F3-HER2YVMA cells were treated with test compound as described for HER2 signaling. After compound treatment, cells were washed three times with cold phosphate buffer saline (PBS, Life Technologies, Carlsbad, CA), and lysed in modified occupancy lysis buffer prepared with an irreversible biotinylated tool compound (1 μM) in 25 mM Tris pH 7.5, 150 mM NaCl, 1% Triton, and supplemented with cOmplete, EDTA-free Protease inhibitor cocktail (Roche), Phosphatase Inhibitor Cocktails 2 and 3 (Sigma-Aldrich), and 1 mM PMSF (Sigma-Aldrich). To determine % occupancy, lysates were loaded into duplicate plates of the phospho ([…])/total ErbB2 whole cell lysate MSD kit (Meso-Scale Discovery) and incubated overnight. Plates were washed and incubation with either HER2-sulfoTag (1:50, Meso Scale Discovery) or Strep-Sulfo Tag (1:1000, Meso Scale Discovery), for detection of […]. A standard curve of untreated cells in serial dilution was included in each plate to independently fit streptavidin (Free HER2) and total HER2 MSD signals; non-specific signal (BSA control spots) was subtracted from each well. Free HER2 was then normalized by total HER2 for each sample. The results are reported as % DMSO control. The normalized data was fitted using a sigmoidal curve analysis program (Graph Pad Prism version 6) with variable Hill slope to determine EC50 values. The results are provided in Table 4, under columns titled “BT474-HER2 Occ”, “N87-HER2 Occ”, and “Ba/F3 YVMA-HER2 Occ”. HER2 Occ is the concentration of test compound at which 50% of HER2 is irreversible bound.

[2] = target: T1, HER2YVMA; test: HER2 signaling (pHER2) in Ba/F3-HER2YVMA cells; type: cell-based; design: expressed in transfected cells; host or cells: HEK293 (pool), Ba/F3 (clones), BEAS2B (clones); lentiviral vector pCDH-CMV-MCS-EF1-Neo; conditions: read-out: Ba/F3 YVMA pHER2 EC50
Procedure: Cell culture, plasmid cloning, and lentiviral transduction were carried out according to standard procedures. The Human HER2 cDNA construct in pCMV6-Entry for the HER2 wildtype (WT) expression was obtained from Origene. The HER2 cDNA including the 12-nucleotide insertion corresponding to YVMA insertion (HER2YVMA) was codon optimized, synthesized and cloned by GenScript (Piscataway, NJ) in pcDNA3.1. The lentiviral constructs expressing HER2YVMA and HER2 WT were sub-cloned using PCR at System Biosciences (SBI, Mountainview, CA) into lentiviral vectors pCDH-CMV-MCS-EF1-Neo and lentiviral particles were generated.
Engineered lines expressing HER2YVMA and HER2 WT were prepared in HEK293 (human embryonic kidney cells), Ba/F3 (Interleukin 3 (IL3)-dependent murine pro B cell line), and BEAS2B (primary immortalized human bronchial epithelial cell line). Ba/F3, BEAS2B, and HEK293 cells were obtained from the American Type Culture Collection (ATCC, Manassas, VA). Parental Ba/F3 cells were grown in suspension in complete RPMI 1640 supplemented with 10% FBS and 1% P/S and 10 ng/ml interleukin 3 (IL3, Sigma-Aldrich). Hek293 and BEAS2B cells were grown as monolayers in DMEM supplemented with 10% FBS and 1% P/S. All cells were maintained and propagated in a humidified 5% CO2 incubator at 37° C.
To generate Ba/F3, BEAS2B, and Hek-293 cells engineered with lentivirus to express HER2 WT or HER2YVMA, the cells were transduced with lentiviruses at multiplicity of infection (MOI) of 1 or 10; transduced cells were selected and maintained with G418 ([…]) (Geneticin, Life Technologies, Carlsbad, CA). Ba/F3 engineered cells were subjected to gradual withdrawal of interleukin 3 (IL-3, Sigma-Aldrich). After selection, IL3 independent Ba/F3 HER2YVMA, and BEAS2B HER2YVMA cells were cloned by limiting dilution. Hek293 HER2YVMA cells were used as pool. HER2 and phospho HER2 levels were confirmed by flow cytometery and immunoassay (MSD, Meso-Scale Discovery, Rockville, Maryland).
Compound treatment of Ba/F3-HER2YVMA suspension cells was done as described with minor modifications. Cells were plated at 300000 cell/well in 96-well round bottom plates in RPMI supplemented with 2% FBS and immediately dosed with compounds serially diluted in media without serum for a final concentration of 1% FBS, 0.1% DMSO. Cells were incubate with compounds for 1.5 hr, and plates were spun at 1500 rpm for 5 mins to remove media without disturbing pellet. Cells were lysed as described above.
HER2 signaling was evaluated using phospho (Tyr1248)/total ErbB2 whole cell lysate MSD plates (Meso-Scale Discovery, Gaithersburg, MD). The phospho HER2 signal was normalized to total HER2 for each sample; results are reported as % DMSO control. The normalized data was fitted using a sigmoidal curve analysis program (Graph Pad Prism version 6) with variable Hill slope to determine EC50 values.
The HER2 signaling results are provided in Table 4, under columns titled “BT474-pHER2 EC50”, “N87-pHER2 EC50”, and “NCI-H1781-pHER2 EC50”. Hek293-HER2YVMA ins fall under the heading “HEKYVMA-pHER2 EC50”, Ba/F3 HER2YVMA fall under the heading “Ba/F3 YVMA-pHER2 EC50” and BEAS2B-HER2YVMA fall under the heading “BEAS2B YVMA-pHER2 EC50”.

| SMILES | EC50 [1] [nM] | EC50 [2] [nM] |
| --- | --- | --- |
| Cc1ccc(Oc2ccc(Nc3ncnc4sc5c(c34)CCN(C(=O)/C=C/CN(C)C)C5)cc2C)cn1 [Compound 8, (E)-4-(Dimethylamino)-1-(4-((3-methyl-4-((6-methylpyridin-3-yl)oxy)phenyl)amino)-5,6-dihydropyrido[4′,3′:4,5]thieno[2,3-d]pyrimidin-7(8H)-yl)but-2-en-1-one] | < 100 | < 100 |
| Cc1cc(Nc2ncnc3sc4c(c23)CCN(C(=O)/C=C/CN2CCOCC2)C4)ccc1Oc1ccc2ncnn2c1 [Compound 12] | – | < 100 |
| Cc1ccc(Oc2ccc(Nc3ncnc4sc5c(c34)CCN(C(=O)/C=C/CN3CC4CCC(C4)C3)C5)cc2C)cn1 [Compound 16, (E)-4-(3-azabicyclo[3.2.1]octan-3-yl)-1-(4-((3-methyl-4-((6-methylpyridin-3-yl)oxy)phenyl)amino)-5,8-dihydropyrido[4′,3′:4,5]thieno[2,3-d]pyrimidin-7(6H)-yl)but-2-en-1-one benzenesulfonate salt] | < 100 | < 100 |
| Cc1ccc(Oc2ccc(Nc3ncnc4sc5c(c34)CCN(C(=O)/C=C/CN3CCOCC3)C5)cc2C)cn1 [Compound 17, (E)-1-(4-((3-Methyl-4-((6-methylpyridin-3-yl)oxy)phenyl)amino)-5,6-dihydropyrido[4′,3′:4,5]thieno[2,3-d]pyrimidin-7(8H)-yl)-4-morpholinobut-2-en-1-one] | < 100 | < 100 |
